Experimental data: patent publication US20140350117A1, “Topical Scar Treatment Composition and Method of Using Same” (PROFESSIONAL COMPOUNDING CENTERS OF AMERICA, priority 2013, published 2014)
Structures can show the parent of a compound that is named as a salt.

Legend:
[1] = test system: keloid and hypertrophic scar cells; details: stated to correspond to about 0.01% tamoxifen citrate; cited from earlier work
TGF-β = assay: luciferase bioassay utilizing mink lung epithelial cells for total TGF-β in keloid fibroblasts culture; format: cell-based; details: 48-hour exposure
Text: TGF-β is correlated with luciferase activity and reported in relative light units.

collagen = details: cited from earlier work
fibroblast cells = details: cited from earlier work

Q: With CC/C(=C(\c1ccccc1)c1ccc(OCCN(C)C)cc1)c1ccccc1 [tamoxifen citrate] as the molecule, how does the “concentrations having a deadly effect on keloid and hypertrophic scar cells” value [1] read?
A: greater than 20 μM

Q: And the “total TGF-β levels” value (TGF-β)?
A: dose-dependent decrease

Q: What about the “percent reduction of TGF-β” value (TGF-β; about 8 μM) of the same molecule?
A: about 75%

Q: And the “TGF-β level after treatment” value (TGF-β; about 8 μM, reduced from about 200 pg/ml)?
A: about 50 pg/ml

Q: And the “synthesis of collagen by keloid fibroblasts” value (collagen)?
A: decreasing the synthesis of collagen

Q: What about the “proliferation of normal dermal and keloid fibroblasts” value (fibroblast cells) of the same molecule?
A: decrease proliferation
